In patent US20020111340A1, “Aminoalkoxybiphenylcarboxamides as histamine-3 receptor ligands and their therapeutic applications” (priority 2000, published 2002):

Target: T1, histamine-3 receptor (Rattus norvegicus, UniProt Q9QYN8)
T1 construct: Rat cortical membranes (12 mg wet weight/tube) were incubated with; from tissue; host or cells: male Sprague-Dawley rat brain cortex membranes
Assay: Histamine-3 receptor binding, displacement of (3H)-N-α-methylhistamine from rat cortical membranes
Conditions: male Sprague-Dawley rat brain cortical membranes; (3H)-N-α-methylhistamine ~0.6 nM; 30 minutes at 25° C.; Cheng-Prusoff
Experimental: Briefly, male Sprague-Dawley rat brain cortices were homogenized (1 g tissue/10 mL buffer) in 50 mM Tris-HCl/5 mM EDTA containing protease inhibitor cocktail (Calbiochem) using a polytron set at 20,500 rpm. Homogenates were centrifuged for 20 minutes at 40,000× g. The supernatant was decanted, and pellets were weighed. The pellet was resuspended by polytron homogenization in 40 mL of 50 mM Tris-HCl/5 mM EDTA with protease inhibitors and centrifuged for 20 minutes at 40,000× g. […] Rat cortical membranes (12 mg wet weight/tube) were incubated with (^3H)-N-α-methylhistamine (˜0.6 nM) with or without H3 receptor antagonists in a total incubation volume of 0.5 mL of 50 mM Tris-HCl/5 mM EDTA (pH 7.7). Test compounds were dissolved in DMSO to provide a 20 mM solution, serially diluted and then added to the incubation mixtures prior to initiating the incubation assay by addition of the membranes. Thioperamide (3 μM) was used to determine nonspecific binding. Binding incubations were conducted for 30 minutes at 25° C. and terminated by addition of 2 mL of ice cold 50 mM Tris-HCl (pH 7.7) and filtration through 0.3% polyethylenimine-soaked Unifilter plates (Packard). These filters were washed 4 additional times with 2 mL of ice-cold 50 mM Tris-HCl and dried for 1 hour. Radioactivity was determined using liquid scintillation counting techniques. Results were analyzed by Hill transformation and Ki values were determined using the Cheng-Prusoff equation.

T1 sequence (Q9QYN8 whole entry): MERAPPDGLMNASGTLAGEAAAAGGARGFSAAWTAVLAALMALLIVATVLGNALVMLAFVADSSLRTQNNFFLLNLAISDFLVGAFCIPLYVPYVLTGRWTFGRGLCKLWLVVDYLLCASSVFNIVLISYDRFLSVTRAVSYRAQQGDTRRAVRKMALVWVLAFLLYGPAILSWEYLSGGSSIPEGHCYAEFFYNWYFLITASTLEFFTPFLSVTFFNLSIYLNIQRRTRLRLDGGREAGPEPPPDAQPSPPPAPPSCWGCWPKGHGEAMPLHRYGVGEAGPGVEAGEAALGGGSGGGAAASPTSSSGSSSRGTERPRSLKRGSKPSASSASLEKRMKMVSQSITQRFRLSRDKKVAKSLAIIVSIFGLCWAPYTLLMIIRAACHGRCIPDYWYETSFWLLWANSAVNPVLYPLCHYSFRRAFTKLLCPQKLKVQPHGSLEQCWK

Compound | Ki [nM]
CC(C)NC(=O)c1ccc(-c2ccc(OCCCN3[C@H](C)CC[C@H]3C)cc2)cc1 [Example 1, 4′-{3-[(2R,5R)-2,5-dimethylpyrrolidinyl]propoxy}-N-isopropyl[1,1′-biphenyl]-4-carboxamide] | 2.84
CC1CCCN1C(=O)c1ccc(-c2ccc(OCCCN3[C@H](C)CC[C@H]3C)cc2)cc1 (stereo partly drawn) [Example 3, (2R,5R)-2,5-dimethyl-1-[3-({4′-[(2-methyl-1-pyrrolidinyl)carbonyl][1,1′-biphenyl]-4-yl}oxy)propyl]pyrrolidine] | 1
CC(C)NCCCOc1ccc(-c2ccc(C(=O)N3[C@H](C)CC[C@H]3C)cc2)cc1 [Example 4, 3-[(4′-{[(2R,5R)-2,5-dimethylpyrrolidinyl]carbonyl}[1,1′-biphenyl]-4-yl)oxy]-N-isopropyl-1-propanamine] | 507
CCN(CC)CCCOc1ccc(-c2ccc(C(=O)N3[C@H](C)CC[C@H]3C)cc2)cc1 [Example 5, 3-[(4′-{[(2R,5R)-2,5-dimethylpyrrolidinyl]carbonyl}[1,1′-biphenyl]-4-yl)oxy]-N,N-diethyl-1-propanamine] | 13.8
CC1CCN(CCCOc2ccc(-c3ccc(C(=O)N4[C@H](C)CC[C@H]4C)cc3)cc2)CC1 [Example 7, 1-{3-[(4′-{[(2R,5R)-2,5-dimethylpyrrolidinyl]carbonyl}[1,1′-biphenyl]-4-yl)oxy]propyl}-4-methylpiperidine] | 3.66
C[C@@H]1CC[C@@H](C)N1C(=O)c1ccc(-c2ccc(OCCCN3CCOCC3)cc2)cc1 [Example 8, 4-{3-[(4′-{[(2R,5R)-2,5-dimethylpyrrolidinyl]carbonyl}[1,1′-biphenyl]-4-yl)oxy]propyl}morpholine] | 114
CC1CCN(C(=O)c2ccc(-c3ccc(OCCCN4[C@H](C)CC[C@H]4C)cc3)cc2)CC1 [Example 9, 1-[(4′-{3-[(2R,5R)-2,5-dimethylpyrrolidinyl]propoxy}[1,1′-biphenyl]-4-yl)carbonyl]-4-methylpiperidine] | 2.63
C[C@H](c1ccccc1)N(C)CCCOc1ccc(-c2ccc(C(=O)N3CCCC3)cc2)cc1 [Example 11, N-methyl-N-[(1R)-1-phenylethyl]-N-(3-{[4′-(1-pyrrolidinylcarbonyl)[1,1′-biphenyl]-4-yl]oxy}propyl)amine] | 363
CN(CCCOc1ccc(-c2ccc(C(=O)N3CCCC3)cc2)cc1)[C@@H]1CCN(Cc2ccccc2)C1 [Example 12, N-[(3R)-1-benzylpyrrolidinyl]-N-methyl-N-(3-{[4′-(1-pyrrolidinylcarbonyl)[1,1′-biphenyl]-4-yl]oxy}propyl)amine] | 384
O=C(c1ccc(-c2ccc(OCCCN3CCC[C@@H]3CO)cc2)cc1)N1CCCC1 [Example 13, [(2R)-1-(3-{[4′-(1-pyrrolidinylcarbonyl)[1,1′-biphenyl]-4-yl]oxy}propyl)pyrrolidinyl]methanol] | 80
O=C(c1ccc(-c2ccc(OCCCN3CCC[C@H]3CO)cc2)cc1)N1CCCC1 [Example 14, [(2S)-1-(3-{[4′-(1-pyrrolidinylcarbonyl)[1,1′-biphenyl]-4-yl]oxy}propyl)pyrrolidinyl]methanol] | 6.07
C[C@@H]1CCC[C@H](C)N1CCCOc1ccc(-c2ccc(C(=O)N3CCCC3)cc2)cc1 [Example 15, (2R,6S)-2,6-dimethyl-1-(3-{[4′-(1-pyrrolidinylcarbonyl)[1,1′-biphenyl]-4-yl]oxy}propyl)piperidine] | 7.18
O=C(c1ccc(-c2ccc(OCCCN3CCC[C@@H](O)C3)cc2)cc1)N1CCCC1 [Example 16, (3R)-1-(3-{[4′-(1-pyrrolidinylcarbonyl)[1,1′-biphenyl]-4-yl]oxy}propyl)-3-piperidinol] | 71.5
